Results: patent US12540120B2, “Herbicidal compounds” (SYNGENTA CROP PROTECTION AG, priority 2019, dated 2026)

What was measured:
Type in all cases: in vivo
Setaria faberi (SETFA) [1] = test: B3 Post-Emergence Efficacy—Test 3; details: post-emergence application, 250 g/ha, evaluated after 13 days (Test 3)
Procedure: (§1) B3 Post-Emergence Efficacy—Test 3 Seeds of a variety of test species are sown in standard soil in pots:—Amaranthus retoflexus (AMARE), Setaria faberi (SETFA), Echinochloa crus-galli (ECHCG), Ipomoea hederacea (IPOHE), Zea Mays (ZEAMX), Abutilon theophrasti (ABUTH). After 8 days cultivation (post-emergence) under controlled conditions in a glasshouse (at 24/16° C., day/night; 14 hours light; 65% humidity), the plants are sprayed with an aqueous spray solution derived from the formulation of the technical active ingredient in acetone/water (50:50) solution containing 0.5% Tween 20 (polyoxyethylene sorbitan monolaurate, CAS RN 9005-64-5). Compounds are applied at 250 g/ha. The test plants are then grown in a glasshouse under controlled conditions in a glasshouse (at 24/16° C., day/night; 14 hours light; 65% humidity) and watered twice daily. After 13 days, the test is evaluated for the percentage damage caused to the plant. The biological activities are assessed on a five point scale (5=80-100%; 4=60-79%; 3=40-59%; 2=20-39%; 1=0-19%). A blank value in the table is indicative that the compound was not tested on that species.

[2] = test system: Echinochloa crus-galli (ECHCG); test: B3 Post-Emergence Efficacy—Test 3; details: post-emergence application, 250 g/ha, evaluated after 13 days (Test 3)
Procedure: as §1

[3] = test system: Ipomoea hederacea (IPOHE); test: B3 Post-Emergence Efficacy—Test 3; details: post-emergence application, 250 g/ha, evaluated after 13 days (Test 3)
Procedure: as §1

[4] = test system: Amaranthus retoflexus (AMARE); test: B3 Post-Emergence Efficacy—Test 3; details: post-emergence application, 250 g/ha, evaluated after 13 days (Test 3)
Procedure: as §1

Zea Mays (ZEAMX) [5] = test: B3 Post-Emergence Efficacy—Test 3; details: post-emergence application, 250 g/ha, evaluated after 13 days (Test 3)
Procedure: as §1

[6] = test system: Abutilon theophrasti (ABUTH); test: B3 Post-Emergence Efficacy—Test 3; details: post-emergence application, 250 g/ha, evaluated after 13 days (Test 3)
Procedure: as §1

Setaria faberi (SETFA) [7] = test: B6 Pre-Emergence Efficacy—Test 3; details: pre-emergence application, 250 g/ha, evaluated after 13 days (Test 3)
Procedure: (§2) B6 Pre-Emergence Efficacy—Test 3 Seeds of a variety of test species were sown in standard soil in pots: Amaranthus retoflexus (AMARE), Setaria faberi (SETFA), Echinochloa crus-galli (ECHCG), Ipomoea hederacea (IPOHE), Zea Mays (ZEAMX), Abutilon theophrasti (ABUTH). After cultivation for one day (pre-emergence) under controlled conditions in a glasshouse (at 24/16° C., day/night; 14 hours light; 65% humidity), the plants were sprayed with an aqueous spray solution derived from the formulation of the technical active ingredient in acetone/water (50:50) solution containing 0.5% Tween 20 (polyoxyethelyene sorbitan monolaurate, CAS RN 9005-64-5). Compounds are applied at 250 g/ha. The test plants were then grown in a glasshouse under controlled conditions (at 24/16° C., day/night; 14 hours light; 65% humidity) and watered twice daily. After 13 days, the test is evaluated for the percentage damage caused to the plant. The biological activities are assessed on a five point scale (5=80-100%; 4=60-79%; 3=40-59%; 2=20-39%; 1=0-19%). A blank value in the table is indicative that the compound was not tested on that species.

[8] = test system: Echinochloa crus-galli (ECHCG); test: B6 Pre-Emergence Efficacy—Test 3; details: pre-emergence application, 250 g/ha, evaluated after 13 days (Test 3)
Procedure: as §2

[9] = test system: Ipomoea hederacea (IPOHE); test: B6 Pre-Emergence Efficacy—Test 3; details: pre-emergence application, 250 g/ha, evaluated after 13 days (Test 3)
Procedure: as §2

[10] = test system: Amaranthus retoflexus (AMARE); test: B6 Pre-Emergence Efficacy—Test 3; details: pre-emergence application, 250 g/ha, evaluated after 13 days (Test 3)
Procedure: as §2

Zea Mays (ZEAMX) [11] = test: B6 Pre-Emergence Efficacy—Test 3; details: pre-emergence application, 250 g/ha, evaluated after 13 days (Test 3)
Procedure: as §2

[12] = test system: Abutilon theophrasti (ABUTH); test: B6 Pre-Emergence Efficacy—Test 3; details: pre-emergence application, 250 g/ha, evaluated after 13 days (Test 3)
Procedure: as §2

Row | SMILES | percentage damage caused to the plant, five point scale, SETFA (Setaria faberi (SETFA) [1]) | percentage damage caused to the plant, five point scale, ECHCG [2] | percentage damage caused to the plant, five point scale, IPOHE [3] | percentage damage caused to the plant, five point scale, AMARE [4] | percentage damage caused to the plant, five point scale, ZEAMX (Zea Mays (ZEAMX) [5]) | percentage damage caused to the plant, five point scale, ABUTH [6] | percentage damage caused to the plant, five point scale, SETFA (Setaria faberi (SETFA) [7]) | percentage damage caused to the plant, five point scale, ECHCG [8] | percentage damage caused to the plant, five point scale, IPOHE [9] | percentage damage caused to the plant, five point scale, AMARE [10] | percentage damage caused to the plant, five point scale, ZEAMX (Zea Mays (ZEAMX) [11]) | percentage damage caused to the plant, five point scale, ABUTH [12]
1 | Cc1nn(C)c(=O)c(-c2c(F)ccc(Cl)c2CCc2ccc(CSC(C)C)cc2)c1O [Compound A-1.389] | 5 (5=80-100%) | 5 (5=80-100%) | 5 (5=80-100%) | 4 (4=60-79%) | 5 (5=80-100%) | 4 (4=60-79%) | 5 (5=80-100%) | 5 (5=80-100%) | 5 (5=80-100%) | 5 (5=80-100%) | 4 (4=60-79%) | 3 (3=40-59%)
2 | Cc1nn(C)c(=O)c(-c2c(F)ccc(Cl)c2CCc2cnn(C3CC3)c2)c1O [Compound A-1.387] | 4 (4=60-79%) | 4 (4=60-79%) | 4 (4=60-79%) | 4 (4=60-79%) | 4 (4=60-79%) | 4 (4=60-79%) | 5 (5=80-100%) | 5 (5=80-100%) | 5 (5=80-100%) | 5 (5=80-100%) | 4 (4=60-79%) | 4 (4=60-79%)
3 | Cc1nn(C)c(=O)c(-c2c(F)ccc(Cl)c2CCc2ccc(-c3ncco3)cc2)c1O [Compound A-1.382] | 4 (4=60-79%) | 4 (4=60-79%) | 5 (5=80-100%) | 4 (4=60-79%) | 5 (5=80-100%) | 4 (4=60-79%) | 5 (5=80-100%) | 5 (5=80-100%) | 5 (5=80-100%) | 5 (5=80-100%) | 4 (4=60-79%) | 4 (4=60-79%)
4 | Cc1nn(C)c(=O)c(-c2c(F)ccc(C3CC3)c2CCc2ccnc(F)c2)c1O [Compound C-1.013, 4-[3-cyclopropyl-6-fluoro-2-[2-(2-fluoro-4-pyridyl)ethyl]phenyl]-5-hydroxy-2,6-dimethyl-pyridazin-3-one] | 4 (4=60-79%) | 5 (5=80-100%) | 4 (4=60-79%) | 5 (5=80-100%) | 4 (4=60-79%) | 4 (4=60-79%) | 5 (5=80-100%) | 5 (5=80-100%) | 5 (5=80-100%) | 5 (5=80-100%) | 4 (4=60-79%) | 5 (5=80-100%)
5 | Cc1nn(C)c(=O)c(-c2c(F)ccc(Cl)c2CCc2cnn(-c3ccccc3)c2)c1O [Compound A-1.386] | 4 (4=60-79%) | 4 (4=60-79%) | 4 (4=60-79%) | 4 (4=60-79%) | 4 (4=60-79%) | 3 (3=40-59%) | 5 (5=80-100%) | 5 (5=80-100%) | 4 (4=60-79%) | 2 (2=20-39%) | 2 (2=20-39%) | 2 (2=20-39%)
6 | Cc1ccc(-c2ccc(CCc3c(Cl)ccc(F)c3-c3c(O)c(C)nn(C)c3=O)cc2)o1 [Compound A-1.381] | 2 (2=20-39%) | 0 | 4 (4=60-79%) | 4 (4=60-79%) | 1 (1=0-19%) | 3 (3=40-59%) | 0 | 0 | 3 (3=40-59%) | 3 (3=40-59%) | 1 (1=0-19%) | 1 (1=0-19%)
